This note sets out measurements from patent publication US10219516B2, “Molecules having pesticidal utility, and intermediates, compositions, and processes, related thereto” (priority 2015, dated 2019).

Common to all, as to assay type: in vivo
The subject of assay [1] is Cabbage Looper (Trichoplusia ni, TRIPNI). In words: Bioassay on Cabbage Looper (CL), 128-well diet tray assay. As to conditions: Trichoplusia ni. In short, it runs like this: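 Second-instar larvae, one to five per well, were placed on artificial diet surface-treated with 50 μg/cm^2 test molecule applied in 90:10 acetone-water and dried, eight wells per molecule. Trays were covered, vented and held at 25° C., 14:10 light-dark for five to seven days; percent mortality per well was averaged.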

The test system of assay [2] is Beet Armyworm (Spodoptera exigua, LAPHEG). As to the kind of experiment: Bioassay on Beet Armyworm (BAW), 128-well diet tray assay. In short, it runs like this: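 Diet tray, 8 wells/compound; 50 μg/cm^2 applied to diet surface (90:10 acetone-water), dried. 1–5 L2 larvae/well; 25° C., 14:10 L:D, 5–7 d. Read-out: % mortality, mean of 8 wells.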
Assay [3] relates to Yellow Fever Mosquito (Aedes aegypti, AEDSAE). As to the kind of experiment: Bioassay on Yellow Fever Mosquito (YFM), 96-well plate larval assay. As to conditions: for YFM rating: Yellow Fever Mosquito, 96-well plate larval assay; for YFM (Biological Results, rating): Species YFM (Yellow Fever Mosquito). In short, it runs like this: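 Aedes aegypti larvae (about 1 day old) in liver-powder water were added to plates dispensed from DMSO master plates (4000 ppm stock) diluted with 90:10 water/acetone; six replicate plates per master. Lidded plates were held at room temperature for 3 days, then each well was scored for mortality.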

Where [4] appears, read: Cabbage Looper, 128-well diet tray assay, read-out: CL rating.
Setting [5] is: Beet Armyworm, 128-well diet tray assay, read-out: BAW rating.
[6] abbreviates: Species CL (Cabbage Looper), read-out: CL (Biological Results, rating).
Where [7] appears, read: Species BAW (Beet Armyworm), read-out: BAW (Biological Results, rating).

SMILES strings stand for the structures. Where two headings read alike, the source gives them in different places.

In the case of `O=C(Nc1ccc2cccnc2c1)c1cc(NC(=O)C2C(c3cc(Cl)cc(Cl)c3)C2(Cl)Cl)ccc1Cl` (stereo not drawn) [F436, 2-Chloro-5-(trans)-2,2-dichloro-3-(3,5-dichlorophenyl)cyclopropane-1-carboxamido)-N-(quinolin-7-yl)benzamide], the pest or weed control at 50 µg/cm2 in assay [1] (setting [4]) and in assay [2] (setting [5]) was 50 to 100% throughout. In addition, the YFM rating result in assay [3] is “B (More than 0-Less than 80)”.

As to `CNc1ccc(NC(=O)c2cc(NC(=O)[C@H]3[C@H](c4ccc(Br)c(Cl)c4)C3(Cl)Cl)ccc2Cl)c(C)c1` (relative stereo) [F323, 5-(trans-3-(4-bromo-3-chlorophenyl)-2,2-dichlorocyclopropane-1-carboxamido)-2-chloro-N-(2-methyl-4-(methylamino)phenyl)benzamide], the pest or weed control at 50 µg/cm2 in assay [1] (setting [6]) and in assay [2] (setting [7]) was 50 to 100% throughout. Further, in assay [3], the “YFM (Biological Results, rating)” value was “A (80-100)”.

As to `Nc1c(F)ccc(NC(=O)c2cc(NC(=O)[C@H]3[C@H](c4ccc(F)c(Cl)c4)C3(Cl)Cl)ccc2Cl)c1F` [F317, N-(3-Amino-2,4-difluorophenyl)-2-chloro-5-((1R,3R)-2,2-dichloro-3-(3-chloro-4-fluorophenyl)cyclopropane-1-carboxamido)benzamide], the pest or weed control at 50 µg/cm2 in assay [1] (setting [6]) and in assay [2] (setting [7]) was 50 to 100% each time. Also, in assay [3], the “YFM (Biological Results, rating)” value is “A (80-100)”.

Regarding `O=C(Nc1ccc(F)cc1)c1cc(NC(=O)[C@H]2[C@H](c3cc(Cl)cc(Cl)c3)C2(Cl)Cl)ccc1-n1cncn1` (relative stereo) [F12, trans-5-(2,2-Dichloro-3-(3,5-dichlorophenyl)cyclopropane-1-carboxamido)-N-(4-fluorophenyl)-2-(1H-1,2,4-triazol-1-yl)benzamide], the pest or weed control at 50 µg/cm2 in assay [1] (setting [6]) and in assay [2] (setting [7]) was 50 to 100% each time. The “YFM (Biological Results, rating)” value in assay [3] is given as “A (80-100)”.

Take `C[C@]1(c2ccc(OC(F)(F)F)cc2)[C@H](C(=O)Nc2ccc(Cl)c(C(=O)Nc3ccc(F)cc3)c2)C1(Cl)Cl` (relative stereo) [PF32, trans-2-Chloro-5-(2,2-dichloro-3-methyl-3-(4-(trifluoromethoxy)phenyl)cyclopropanecarboxamido)-N-(4-fluorophenyl)benzamide]: the pest or weed control at 50 µg/cm2 in assay [1] (setting [4]) and in assay [2] (setting [5]) was 50 to 100% in each case. The YFM rating result in assay [3] is on record as “A (80-100)”.

As to `Nc1c(F)ccc(NC(=O)c2cc(NC(=O)[C@H]3[C@H](c4ccc(Cl)c(Cl)c4)C3(Cl)Cl)ccc2Cl)c1F` [F314, N-(3-Amino-2,4-difluorophenyl)-2-chloro-5-((1R,3R)-2,2-dichloro-3-(3,4-dichlorophenyl)cyclopropane-1-carboxamido)benzamide], the pest or weed control at 50 µg/cm2 in assay [1] (setting [6]) and in assay [2] (setting [7]) was 50 to 100% in each case. Also, the “YFM (Biological Results, rating)” value in assay [3] is recorded as “A (80-100)”.

Regarding `O=C(Nc1ccc(F)cc1)c1cc(NC(=O)[C@H]2[C@H](c3cc(Cl)cc(Cl)c3)C2(Br)Br)ccc1Cl` (relative stereo) [F122, trans-2-Chloro-5-(2,2-dibromo-3-(3,5-dichlorophenyl)cyclopropane-1-carboxamido)-N-(4-fluorophenyl)benzamide], the pest or weed control at 50 µg/cm2 in assay [1] (setting [6]) and in assay [2] (setting [7]) was 50 to 100% in each case. Besides, the “YFM (Biological Results, rating)” value in assay [3] is on record as “B (More than 0-Less than 80)”.

In the case of `CN(C(=O)c1cccc(NC(=O)[C@H]2[C@H](c3cc(Cl)cc(Cl)c3)C2(Cl)Cl)c1)c1ccc(F)cc1` (relative stereo) [F273, trans-3-(2,2-Dichloro-3-(3,5-dichlorophenyl)cyclopropane-1-carboxamido)-N-(4-fluorophenyl)-N-methylbenzamide], the pest or weed control at 50 µg/cm2 in assay [1] (setting [6]) and in assay [2] (setting [7]) was 50 to 100% each time. The “YFM (Biological Results, rating)” value in assay [3] is “A (80-100)”.

With `CC(=O)Nc1ccc(NC(=O)c2cc(NC(=O)[C@H]3[C@H](c4cc(Cl)cc(Cl)c4)C3(Cl)Cl)ccc2Cl)c(C)c1` (relative stereo) [PF158, trans-N-(4-Acetamido-2-methylphenyl)-2-chloro-5-(2,2-dichloro-3-(3,5-dichlorophenyl)cyclopropane-1-carboxamido)benzamide], the pest or weed control at 50 µg/cm2 in assay [1] (setting [4]) and in assay [2] (setting [5]) was 50 to 100% throughout. Also, the YFM rating entry in assay [3] is listed as “A (80-100)”.

Take `O=C(Nc1cc(F)cc([N+](=O)[O-])c1)c1cc(NC(=O)[C@H]2[C@H](c3ccc(F)c(Cl)c3)C2(Cl)Cl)ccc1Cl` [F418, 2-Chloro-5-((1R,3R)-2,2-dichloro-3-(3-chloro-4-fluorophenyl)cyclopropane-1-carboxamido)-N-(3-fluoro-5-nitrophenyl)benzamide]: the pest or weed control at 50 µg/cm2 in assay [1] (setting [4]) and in assay [2] (setting [5]) was 50 to 100% throughout. Also, the YFM rating result in assay [3] was “A (80-100)”.

For the compound `CN(C(=O)c1cc(NC(=O)[C@H]2[C@H](c3ccc(Cl)c(Cl)c3)C2(Cl)Cl)ccc1F)c1ccc(F)cc1` (relative stereo) [F59, trans-5-(2,2-Dichloro-3-(3,4-dichlorophenyl)cyclopropane-1-carboxamido)-2-fluoro-N-(4-fluorophenyl)-N-methylbenzamide], the pest or weed control at 50 µg/cm2 in assay [1] (setting [6]) and in assay [2] (setting [7]) was 50 to 100% throughout. For the same compound, in assay [3], the “YFM (Biological Results, rating)” value was “A (80-100)”.

Consider `O=C(Nc1cccc(I)c1)c1cc(NC(=O)[C@H]2[C@H](c3cc(Cl)cc(Cl)c3)C2(Cl)Cl)ccc1Cl` (relative stereo) [F194, trans-2-Chloro-5-(2,2-dichloro-3-(3,5-dichlorophenyl)cyclopropane-1-carboxamido)-N-(3-iodophenyl)benzamide], for which the pest or weed control at 50 µg/cm2 in assay [1] (setting [6]) and in assay [2] (setting [7]) was 50 to 100% throughout. Further, the “YFM (Biological Results, rating)” value in assay [3] is recorded as “B (More than 0-Less than 80)”.

Regarding `O=C(Nc1cncc(NO)c1)c1cc(NC(=O)[C@H]2[C@H](c3cc(Cl)cc(Cl)c3)C2(Cl)Cl)ccc1Cl` [F525, 2-Chloro-5-((1R,3R)-2,2-dichloro-3-(3,5-dichlorophenyl)cyclopropane-1-carboxamido)-N-(5-(hydroxyamino)pyridin-3-yl)benzamide], the pest or weed control at 50 µg/cm2 in assay [1] (setting [4]) and in assay [2] (setting [5]) was 50 to 100% each time. The YFM rating entry in assay [3] was “A (80-100)”.

On to `O=C(Nc1ccc([N+](=O)[O-])cn1)c1cc(NC(=O)[C@H]2[C@H](c3cc(Cl)cc(Cl)c3)C2(Cl)Cl)ccc1Cl` (relative stereo) [F293, 2-Chloro-5-(trans-2,2-dichloro-3-(3,5-dichlorophenyl)cyclopropane-1-carboxamido)-N-(5-nitropyridin-2-yl)benzamide], for which the pest or weed control at 50 µg/cm2 in assay [1] (setting [6]) and in assay [2] (setting [7]) was 50 to 100% throughout. Besides, the “YFM (Biological Results, rating)” value in assay [3] is listed as “A (80-100)”.

As for `O=C(Nc1ccc(-n2ccnn2)cc1)c1cc(NC(=O)[C@H]2[C@H](c3cc(Cl)cc(Cl)c3)C2(Cl)Cl)ccc1Cl` (relative stereo) [F217, trans-N-(4-(1H-1,2,3-Triazol-1-yl)phenyl)-2-chloro-5-(2,2-dichloro-3-(3,5-dichlorophenyl)cyclopropane-1-carboxamido)benzamide], the pest or weed control at 50 µg/cm2 in assay [1] (setting [6]) and in assay [2] (setting [7]) was 50 to 100% throughout. Besides, the “YFM (Biological Results, rating)” value in assay [3] was “B (More than 0-Less than 80)”.

Turning to `COc1c(Cl)cc([C@H]2[C@H](C(=O)Nc3ccc(Cl)c(C(=O)Nc4ccccc4)c3)C2(Cl)Cl)cc1Cl` (relative stereo) [F179, trans-2-chloro-5-(2,2-dichloro-3-(3,5-dichloro-4-methoxyphenyl)cyclopropane-1-carboxamido)-N-phenylbenzamide], the pest or weed control at 50 µg/cm2 in assay [1] (setting [6]) and in assay [2] (setting [7]) was 50 to 100% throughout. Besides, the “YFM (Biological Results, rating)” value in assay [3] was “B (More than 0-Less than 80)”.

Regarding `Cc1cc(F)ccc1NC(=O)c1cc(NC(=O)[C@H]2[C@H](c3ccc(F)c(Cl)c3)C2(Cl)Cl)ccc1Cl` (relative stereo) [PF48, trans-2-Chloro-5-(2,2-dichloro-3-(3-chloro-4-fluorophenyl)cyclopropane-1-carboxamido)-N-(4-fluoro-2-methylphenyl)benzamide], the pest or weed control at 50 µg/cm2 in assay [1] (setting [4]) and in assay [2] (setting [5]) was 50 to 100% each time. The YFM rating result in assay [3] is on record as “A (80-100)”.

For the compound `Nc1cc(F)ccc1NC(=O)c1cc(NC(=O)[C@H]2[C@H](c3ccc(Cl)c(Cl)c3)C2(Cl)Cl)ccc1Cl` [F576, N-(2-Amino-4-fluorophenyl)-2-chloro-5-((1R,3R)-2,2-dichloro-3-(3,4-dichlorophenyl)cyclopropane-1-carboxamido)benzamide], the pest or weed control at 50 µg/cm2 in assay [1] (setting [4]) and in assay [2] (setting [5]) was 50 to 100% each time. Besides, in assay [3], the YFM rating result is “A (80-100)”.

With `O=C(Nc1cncc([N+](=O)[O-])c1)c1cc(NC(=O)[C@H]2[C@H](c3ccc(Cl)c(Cl)c3)C2(Cl)Cl)ccc1Cl` [F359, 2-Chloro-5-((1R,3R)-2,2-dichloro-3-(3,4-dichlorophenyl)cyclopropane-1-carboxamido)-N-(5-nitropyridin-3-yl)benzamide], the pest or weed control at 50 µg/cm2 in assay [1] (setting [6]) and in assay [2] (setting [7]) was 50 to 100% throughout. In addition, the “YFM (Biological Results, rating)” value in assay [3] is given as “A (80-100)”.
